Reference: US12583888B2, “Bi-specific extracellular matrix binding peptides and methods of use thereof” (University of Tartu, priority 2019, dated 2026)
Where “and” joins values, the source holds several entries; their conditions need not be identical. Equal entries are not always repeated. No end group written: not given here.

Legend:
[1] = biological target: T1, TNC-C (Homo sapiens, UniProt P24821); experiment: Individual peptide-phage binding to TNC-C; details: individual peptide phages
T1 construct: made in house; host or cells: E. coli BL21 Rosetta 2 (DE3) pLysS
T1 sequence (P24821 with tags, fused parts or gaps): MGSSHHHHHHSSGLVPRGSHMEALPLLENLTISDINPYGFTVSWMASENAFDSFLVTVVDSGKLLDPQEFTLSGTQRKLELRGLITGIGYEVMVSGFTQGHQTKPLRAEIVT

[2] = test system: P3 stem cell-like tumor; details: i.v. equimolar mix, 2 h circulation
Description: (§1) In vivo play-off was used to evaluate systemic homing of peptide phage to xenograft tumor models. The in vitro selected candidate TNC-C binding peptides, phages displaying published tumor homing peptides, and control peptides were amplified and purified by precipitation with PEG-8000 (Sigma-Aldrich, St. Louis, MO, USA), followed by CsCl2 gradient ultracentrifugation and dialysis. The amplified phage peptides were pooled in equimolar quantities, and injected intravenously (final 1×10^10 pfu in 200 μl PBS) in tumor-bearing mice for two hour circulation, after which mice were anesthetized with 2.5% avertin and intracardially perfused with DMEM intracardially. The tumors and organs were collected in lysogeny broth (LB)+1% NP40, and the tissues were homogenized using a hand-held homogenizer for phage peptide rescue. Phages in the tissue lysates were amplified in E. coli, purified by precipitation with PEG-8000 and DNA was extracted using a DNA extraction kit (High Pure PCR Template Preparation Kit; Roche, Basel, Switzerland). Next-generation sequencing of phage genomic DNA evaluated the representation of each phage in input mixture, in tumor and control organs with Ion Torrent system (Thermo Fisher Scientific, Waltham, MA, USA). The next generation deep sequencing of phage library was done using Ion Torrent according to the manufacturer's protocol with slight modification. The FASTQ data from Ion Torrent was processed by a custom python script that identified the barcodes, constant flanking residues, and extracted the reads of the correct length.

[3] = test system: P13 tumor; details: i.v. equimolar mix, 2 h circulation
Description: as §1

[4] = test system: U87-MG glioblastoma; details: i.v. equimolar mix, 2 h circulation
Description: as §1

[5] = test system: normal brain; details: i.v. equimolar mix, 2 h circulation
Description: as §1

[6] = test system: PC3 prostate carcinoma xenografts; details: i.v. equimolar mix, 2 h circulation
Description: as §1

[7] = test system: WT-GBM tumor; details: i.v. equimolar mix, 2 h circulation
Description: as §1

[8] = test system: orthotopic NCH421K glioblastoma xenografts; experiment: Systemic NW tumor homing, FAM signal by confocal microscopy; type: in vivo, mice; details: NCH421K tumors, 7.5 mg/kg i.v., 5 h
Procedure: For NW biodistribution studies, NWs (7.5 mg/kg) in PBS were injected into the tail vein of the tumor-bearing mice, followed by cardiac perfusion with 20 ml PBS/DMEM before collection tumor and control organs for imaging. In control experiments, NW injection was preceded by systemic pre-injection of blocking FN-EDB and/or TNC-C antibodies (30 μg/mouse) 15 min prior to injection of the NWs.
Snap-frozen 10 μm tumor cryosections were mounted on Superfrost™^+ slides. The sections were equilibrated at RT and fixed with 4% paraformaldehyde/methanol and permeabilized with PBST (PBS+0.05% Tween 20), blocked with PBST, 5% BSA, 5% goat serum (GE Healthcare, Little Chalfont, UK) at RT for 30 min, followed by primary antibody incubation at RT for 1 h. […] The coverslips were mounted on glass slides with Fluoromount-G (Electron Microscopy Sciences, PA, USA), imaged using confocal microscopy (Olympus FV1200MPE, Tokyo, Japan) and analyzed using the FV10-ASW4.2 viewer, Imaris software and ImageJ freeware.

[9] = Zeta potential and size of iron oxide nanoworms by DLS; type: physicochemical; details: n = 3
Procedure: The concentration of the NWs was determined by constructing a calibration curve with iron oxide and measuring the absorbance of NWs at 400 nm with a NanoDrop 2000c spectrophotometer (Thermo Scientific). The concentration measurements were confirmed by ICP-MS. Transmission electron microscopy (TEM, Tecnai 10, Philips, Netherlands) was used to image the nanoparticles. Dynamic Light Scattering (DLS; Zetasizer Nano ZS, Malvern Instruments, UK) was used to assess the zeta potential, polydispersity and size of NWs.

[10] = test system: clinical GBM samples; experiment: NW overlay assay on clinical GBM cryosections; design: species or system human; details: confocal imaging
Procedure: Fresh surgical GBMs ([…]) were snap-frozen in liquid nitrogen, cryosectioned at 8 μm, fixed with methanol, and permeabilized with TBS followed by blocking buffer containing 5% BSA, 5% goat serum and 5% FBS in TBS. For overlay, the sections were incubated with […] of PL1-NW or NW at 4° C. overnight. The sections were washed and blocked with blocking buffer, followed by immunostaining using rabbit anti-fluorescein primary antibodies and detection with the Alexa-488 anti-rabbit secondary antibody. FN-EDB and TNC-C were detected by fluorescently labeled single-chain antibodies ScFV L19 FN-EDB-CF647 and ScFV G11 TNC-C-CF555.

[11] = test system: Ad-VEGF-A164-induced angiogenic vessels; details: adenovirus-injected ear, 7.5 mg/kg i.v., 24 h
Procedure: Angiogenesis was induced by injecting 2.5×10^8 PFU of an adenoviral vector driving expression of mouse VEGF^164 (Ad-VEGF^164) intradermally into the left ear of 7-8 week-old female nude mice (Nagy et al., Methods Enzymol. 444:43-64 (2008)). The right ear served as a control. PL1-NW or NW (at 7.5 mg/kg) were i.v. injected 4 days after induction of angiogenesis and 24 h before intravital imaging. Texas Red/Evans Blue was i.v. injected at 30 mg/kg to allow visualization of blood vessels. The ear was fixed on the coverslip for imaging using a veterinary-grade glue tape, and a mold was prepared around the ear from agarose for imaging. The body temperature was maintained throughout the experiment with a heat mat. Images and videos were acquired at an excitation wavelength of 920 nm, optical sections were taken under identical conditions, and experiments were repeated in triplicates.

[12] = test system: PC3 prostate carcinoma xenografts; experiment: Systemic NW tumor homing, FAM signal by confocal microscopy; type: in vivo, mice; details: PC3 tumors, 7.5 mg/kg i.v., 5 h
Procedure: (§3) FAM-labeled PL2 peptide coupled NW or control FAM-NW (7.5 mg/kg) in PBS were injected into the tail vein of the subcutaneous U87, PC3, and orthotropic WT-GBM tumor mice. Five h after circulation, the tumor and organs were collected by cardiac perfusion of mice with 20 ml PBS/DMEM under deep anesthesia. Tissues were imaged under an Illuminatool Bright Light System LT-9900 (Lightools Research, Encinitas, CA, USA) before Snap-frozen. The frozen tissues were cryosectioned 8-10 μm and mounted on a superfrost+ slides. The sections were equilibrated at RT and fixed with 4% paraformaldehyde/methanol. The immunostaining performed with following primary antibodies; rabbit anti-fluorescein IgG fragment (cat. no. A889, Thermo Fisher Scientific, MA, USA), rat anti-mouse CD31 (BD Biosciences, CA, USA), and in-house prepared CF647 or CF546-labeled single chain antibodies ScFV G11, for secondary antibodies; Alexa 488 goat anti-rabbit IgG, Alexa 647 goat anti-rat IgG, and Alexa 546 goat anti-mouse IgG, were from Invitrogen, CA, USA. Nuclei were counterstained with 4′,6-diamidino-2-phenylindole (DAPI, Molecular Probes) at one 1 μg/ml. The coverslips were mounted onto glass slides with Fluoromount-G (Electron Microscopy Sciences, PA, USA) imaged using confocal microscopy (Olympus FV1200MPE, Hamburg, Germany), and analyzed using the FV10-ASW4.2 viewer/Imaris software/Fiji ImageJ.

[13] = test system: s.c. U87MG glioblastoma xenografts; experiment: as above; details: U87MG tumors, 7.5 mg/kg i.v., 5 h
Procedure: as §3

[14] = test system: intracranially-implanted NCH421k GBM; experiment: Experimental tumor therapy; type: in vivo, mice; design: percent of the surviving mice: concentration or dose not given beside the values
Procedure: (§2) U87MG cells (4×10^6) in 100 μl PBS were implanted subcutaneously into the right flank of 11-15 week old male nude mice. The weight of animals and tumor volume [length×(width×width)/2] was recorded on every other day until tumor volume reached −100 mm^3. Animals were randomized into 4 groups (PBS, FAM-D[KLAKLAK]2-NWs, FAM-PL1-NWs, and FAM-PL1-D[KLAKLAK]2-NWs; 8 mice/group). 100 μl of NWs (at 5 mg/kg body weight of iron) or PBS was intravenously injected into the tail vein every other day for ten injections. Tumor size, body weight, survival, and behavior were recorded during treatment and post-therapy. When the tumor volume reached 2000 mm^3 (or >10% body weight), the mice were sacrificed, and organs and tumors were excised, macroscopically observed and snap frozen. Tumor volume, Kaplan-Meier survival and body weight curves were calculated using the GraphPad Prism 6 software with p-values <0.05 considered significant. For experimental therapy on intracranially-implanted NCH421k GBM, 32 tumor mice were randomized into 4 groups 3 days after the tumor implantation. 100 μl of the PBS or PBS containing FAM-D[KLAKLAK]2-NWs, FAM-PL1-NWs and FAM-PL1-D[KLAKLAK]2-NWs (5 mg/kg body weight of iron; SEQ ID NO:6) were injected i.v. every other day for 10 total injections. Tumor size, body weight, survival, and behavior were recorded during and post-treatment. Kaplan-Meier survival and body weight curves were calculated using GraphPad Prism 6 and P values <0.05 were considered significant.

[15] = test system: orthotopic NCH421K GBM; experiment: Magnetic resonance imaging of NW-injected mice; type: in vivo
Procedure: For MRI, nude mice bearing orthotopic NCH421k GBM were i.v. injected with iron oxide nanoworms at 5 mg/kg. Five hours after NW injection, the mice were anesthetized with isoflurane and subjected to MRI using a 9.4 Tesla BioSpec 94/21 (Bruker BioSpin MRI GmbH, Ettlingen, Germany) equipped with ParaVision Acquisition 6.0.1 software (Bruker, Ettlingen, Germany). Following intravital MRI, the animals were perfused with PBS to remove blood and background circulating NWs and subjected to postmortem MRI. After imaging, tumors and control tissues were harvested and sectioned for immunofluorescence staining. Mice received isoflurane in oxygen mix (1.5%, flow rate of 200 ml/min) for anesthesia; the body temperature and breathing rate were monitored throughout the experiments. T2* map MGE (Multiple Gradient Echo) sequences were acquired in sagittal and coronal orientations. The following parameters were used during the data acquisition: slice thickness −0.375 mm (3 slices averaged offline for improved signal/noise ratio); inter-slice gap −0.375 mm; repetition time −800; Echo time ˜3.5-38.5 ms; flip angle ˜50°; axial slices ˜128, pixel bandwidth ˜292.9; imaging frequency ˜400.3; matrix ˜256×256, and magnetic field strength ˜9.4. To calculate T2 relaxation times, regions of interest (ROIs) were drawn manually on the images by using image sequence analysis (ISA) tool package (Paravision 5, Bruker) using T2vtr fit function y=A+C*exp (−t/T2) (A=Absolute bias, C=signal intensity, T2=spin-spin relaxation time) for T2 evaluation. To calculate mean signal intensity in the tumor to a reference region, ROIs were drawn manually on the images at given echo time (TE). Experiments were repeated in triplicate.

[16] = test system: s.c. U87MG tumors; experiment: Experimental tumor therapy; type: in vivo, mice
Procedure: as §2, with “100 μl of the PBS or PBS containing FAM-D[KLAKLAK]2-NWs, FAM-PL1-NWs and FAM-PL1-D[KLAKLAK]2-NWs (5 mg/kg body weight of iron; SEQ ID NO:6) were injected i.v. every other day for 10 total injections.” left out

[17] = test system: orthotopic WT-GBM glioblastoma; experiment: Systemic NW tumor homing, FAM signal by confocal microscopy; type: in vivo, mice; details: WT tumors, 7.5 mg/kg i.v., 5 h
Procedure: as §3

With AVRGRLRVAKLAAALE the “TNC-C binding (fold G7 control phage)” value [1] was 5333 fold and 7111 fold, the “Representation of phage in tumors (fold G7 control phage), P3 SCL” value [2] was 0.6 fold and the “Representation of phage in tumors (fold G7 control phage), P13” value [3] was 0.6 fold. For the same substance, the “Representation of phage in tumors (fold G7 control phage), U87-MG” value [4] was 0.8 fold, the “Representation of phage in control brain tissue (fold G7 control phage), Norm. brain” value [5] was 0.1 fold and the “Representation of phage in tumors (fold G7 control phage), PC3” value [6] was 1.0 fold. The “Representation of phage in tumors (fold G7 control phage), WT-GBM” value [7] was 1.3 fold.
For “PL1-NW: iron oxide nanoworms coated with FAM-labeled PL1 peptide (CPPRRGLIKLKTS; not fully specified (residue 1); also: FAM label)”, the “increase in NW accumulation compared to non-targeted NWs” value (“increase … to non-targeted NWs” below) [8] was 8.8 fold, the “Zeta Potential” value [9] was −10.3 ± 0.7 mV and the “binding to clinical GBM cryosections” value [10] was “showed binding to all human GBM samples tested”. For the same substance, the “increase in accumulation in angiogenic vessels relative to nontargeted NWs” value [11] was about 3 fold, the “increase … to non-targeted NWs” value [12] was 4.7 fold and the “increase … to non-targeted NWs” value [13] was 5 fold. For the same substance, the Median survival ([14]; Kaplan-Meier) was 42 days, the “percent of the surviving mice” value ([14]; day 0) was 100% and the “percent of the surviving mice” value ([14]; day 32) was 100%. For the same substance, the “percent of the surviving mice” value ([14]; day 37) was 75%, the “percent of the surviving mice” value ([14]; day 38) was 62.5% and the “percent of the surviving mice” value ([14]; day 39) was 62.5%. The “percent of the surviving mice” value ([14]; day 40) was 62.5%, the “percent of the surviving mice” value ([14]; day 41) was 62.5% and the “percent of the surviving mice” value ([14]; day 42) was 37.5%. For the same substance, the “percent of the surviving mice” value ([14]; day 43) was 25%, the “percent of the surviving mice” value ([14]; day 44) was 0% and the “decrease of T2* relaxation time within the tumor” value ([15]; 5 mg/kg iron i.v.) was 27-36%. The “T2* relaxation time within the tumor” value ([15]; after NW injection, first value (post-scan, 5 h)) was 17 ± 1 ms, the “T2* relaxation time within the tumor” value ([15]; after NW injection, second value (perfused)) was 14 ± 4 ms and the “T2* relaxation time within the tumor” value ([15]; before NW injection (pre-scan)) was “about 23±2 ms”. For the same substance, the Median survival ([16]; U87MG, Kaplan-Meier) was 39 days, the “percent of the surviving mice” value ([16]; U87MG, day 0) was 100% and the “percent of the surviving mice” value ([16]; U87MG, day 29) was 88%. For the same substance, the “percent of the surviving mice” value ([16]; U87MG, day 31) was 75%, the “percent of the surviving mice” value ([16]; U87MG, day 33) was 75% and the “percent of the surviving mice” value ([16]; U87MG, day 35) was 63%. For the same substance, the “percent of the surviving mice” value ([16]; U87MG, day 37) was 63%, the “percent of the surviving mice” value ([16]; U87MG, day 39) was 38% and the “percent of the surviving mice” value ([16]; U87MG, day 41) was 25%. For the same substance, the “percent of the surviving mice” value ([16]; U87MG, day 43) was 25%, the “percent of the surviving mice” value ([16]; U87MG, day 45) was 13% and the “percent of the surviving mice” value ([16]; U87MG, day 49) was 13%. The “percent of the surviving mice” value ([16]; U87MG, day 57) was 0%, the tumor growth ([16]; s.c. U87MG, i.v. every other day, 10 injections, 5 mg/kg iron) was “only a slight reduction in tumor growth” and the “increase … to non-targeted NWs” value [17] was 3.3 fold.
